In patent US12122816B2, “Long acting peptide tyrosine tyrosine (PYY) analogs and methods of use” (Intarcia Therapeutics, Inc., priority 2020, dated 2024):
Starred links: 1 amine or outer side, 2 acyl side, 3 side chain; linkers in the order of their positions; H or OH if unused. Non-standard residues stand in square brackets, D forms with d. Residues, ends and D or L forms follow the SMILES beside them. Groups on a side chain read outwards from the residue. *: point of attachment. C20 diacid = O=C(O)CCCCCCCCCCCCCCCCCCC(=O)*; γGlu = O=C(O)[C@H](CCC(=O)[*:2])N[*:1]; NMeY = CN[C@@H](Cc1ccc(O)cc1)C(=O)O

Tests used:
Assay in all cases: NPY receptor functional assay (cAMP, HEK-CNG cells, ACTOne membrane potential dye)
Assay type in all cases: cell-based
[1] = molecular target: T1, human Y2 receptor (Homo sapiens, UniProt P49146); details: NPY2R pEC50, HEK-CNG cells; standard PYY(3-36); species (human or rat) not given
T1 sequence (P49146 1-381): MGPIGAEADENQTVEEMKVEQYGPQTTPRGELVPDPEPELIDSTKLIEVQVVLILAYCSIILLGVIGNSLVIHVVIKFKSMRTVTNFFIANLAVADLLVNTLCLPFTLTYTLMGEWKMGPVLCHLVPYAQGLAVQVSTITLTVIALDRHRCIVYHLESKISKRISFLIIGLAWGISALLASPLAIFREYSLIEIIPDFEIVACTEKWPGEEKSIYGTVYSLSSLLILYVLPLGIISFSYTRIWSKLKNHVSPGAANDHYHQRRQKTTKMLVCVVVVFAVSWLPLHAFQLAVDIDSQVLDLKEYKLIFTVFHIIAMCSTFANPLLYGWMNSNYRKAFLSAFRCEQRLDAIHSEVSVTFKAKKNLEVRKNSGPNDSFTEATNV
Excerpt: (§1) The NPY family of G-protein coupled receptors include Y1, Y2, Y4, and Y5 in humans and rats. […] Following agonist binding, the receptor-G protein complex activates a downstream intracellular signaling cascade which leads to inhibition of adenylate cyclase and a reduction in intracellular cAMP levels.
(§2) HEK-CNG cells stably expressing the human or rat Y1, Y2, Y4 or Y5 receptors (Codex Biosolutions) were used to characterize the functional potency of peptide agonists using the ActOne™ membrane potential dye kit (Codex Biosolutions). In addition to each NPY receptor, each cell line encodes a proprietary exogenous Cyclic Nucleotide-Gated (CNG) channel (Codex Biosolutions). The channel is activated by elevated intracellular levels of cAMP, resulting in ion flux and cell membrane depolarization which can be detected with a calcium sensitive dye or fluorescent membrane potential (MP) dye. Cells were carried in growth media containing 90% DMEM, 10% FBS, 250 mcg/mL G418 and 1 mcg/mL puromycin for no more than 15 passages.
(§3) Prior to testing, cells were counted and dispensed at 14,000 cells per well (Y1, Y4 and Y5) or 28,000 cells per well (Y2) into black 384 well Poly-D-Lysine plates at 20 mcL per well. Covered plates were then incubated at room temperature for 30 minutes followed by an overnight incubation at 37° C. in 5% C02. The following day, media was removed and wells were washed once with 40 mcL Dulbecco's phosphate buffered saline. […] Ten microliters of experimental peptide or peptide standard was added in triplicate to wells and incubated for 50 minutes at room temperature in the dark. Following this incubation step, plates were read again as before (final read).
(§4) NPY receptor activation, leading to a reduction in intracellular cAMP levels, is detected as a decrease in isoproteranol induced fluorescent signal. Peptide standard and experimental values were initially transformed in excel using the formula: final read/initial read. Transformed values were then normalized to receptor specific standard values (1×10−13 M minimum and 1×10−7 M maximum) using the formula: (test value−standard minavg)/(standard maxavg−standard minavg)*100. […] Normalized data was analyzed from triplicate tests and used to estimate the EC50 for each test peptide on each receptor. Data was fit in GraphPad Prism software (v8.2.1) using a 3-parameter logistic curve model: Y=Bottom+(Top−Bottom)/(1+10^((LogEC50−X))). EC50 values were converted to pEC50 values using the formula: pEC50=−Log(EC50).

[2] = molecular target: human Y4 receptor (Homo sapiens, UniProt P50391); details: standard PP, species (human or rat) not given
Excerpt: as §1, §2, §3, §4

[3] = molecular target: T2, human Y5 receptor (Homo sapiens, UniProt Q15761); details: NPY5R pEC50, HEK-CNG cells; standard NPY; species (human or rat) not given
T2 sequence (Q15761 1-445): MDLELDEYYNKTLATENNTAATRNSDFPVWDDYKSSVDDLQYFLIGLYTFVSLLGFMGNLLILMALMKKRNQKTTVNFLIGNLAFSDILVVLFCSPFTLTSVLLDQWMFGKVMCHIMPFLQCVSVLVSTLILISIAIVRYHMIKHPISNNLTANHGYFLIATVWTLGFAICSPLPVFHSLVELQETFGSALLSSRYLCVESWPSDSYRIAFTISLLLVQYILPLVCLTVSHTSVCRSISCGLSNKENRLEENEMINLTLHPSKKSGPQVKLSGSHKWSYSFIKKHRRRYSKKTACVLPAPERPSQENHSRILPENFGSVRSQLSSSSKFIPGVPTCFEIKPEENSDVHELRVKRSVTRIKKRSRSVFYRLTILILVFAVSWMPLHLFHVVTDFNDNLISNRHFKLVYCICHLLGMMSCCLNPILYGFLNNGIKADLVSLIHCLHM
Excerpt: as §1, §2, §3, §4

human Y4 receptor, sequence (P50391 whole entry): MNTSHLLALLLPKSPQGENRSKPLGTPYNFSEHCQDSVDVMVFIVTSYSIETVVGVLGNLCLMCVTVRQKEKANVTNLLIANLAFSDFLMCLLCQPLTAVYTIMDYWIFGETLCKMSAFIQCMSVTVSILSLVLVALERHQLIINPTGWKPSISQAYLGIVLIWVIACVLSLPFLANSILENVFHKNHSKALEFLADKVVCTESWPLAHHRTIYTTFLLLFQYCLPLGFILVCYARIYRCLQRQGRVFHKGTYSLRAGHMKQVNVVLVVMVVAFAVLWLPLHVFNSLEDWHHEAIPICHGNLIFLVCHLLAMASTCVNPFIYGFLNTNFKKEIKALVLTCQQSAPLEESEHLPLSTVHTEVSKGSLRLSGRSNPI

Row | SMILES | EC50 [1] | NPY4R pEC50 [2] | EC50 [3]
1 | CC(C)C[C@H](NC(=O)[C@H](Cc1ccc(O)cc1)NC(=O)[C@H](Cc1c[nH]cn1)NC(=O)[C@H](CCCNC(=N)N)NC(=O)[C@H](C)NC(=O)[C@H](CC(=O)O)NC(=O)[C@H](C)NC(=O)[C@H](Cc1ccc(O)cc1)NC(=O)[C@H](Cc1ccc(O)cc1)NC(=O)[C@H](CCCNC(=N)N)NC(=O)[C@H](CCCCNC(=O)CC[C@H](NC(=O)CC[C@H](NC(=O)CCCCCCCCCCCCCCCCCCC(=O)O)C(=O)O)C(=O)O)NC(=O)[C@H](Cc1c[nH]c2ccccc12)NC(=O)[C@H](CCC(=O)O)NC(=O)[C@H](CCC(=O)O)NC(=O)[C@@H]1CCCN1C(=O)[C@H](CO)NC(=O)[C@H](C)NC(=O)[C@H](CC(=O)O)NC(=O)[C@H](CCCCN)NC(=O)CNC(=O)[C@@H]1CCCN1C(=O)[C@H](C)NC(=O)[C@H](CCC(=O)O)NC(=O)[C@@H]1CCCN1C(=O)[C@H](CCCCN)NC(=O)[C@@H]1CCCN1)C(=O)N[C@@H](CC(N)=O)C(=O)N[C@@H](Cc1c[nH]c2ccccc12)C(=O)N[C@@H](CC(C)C)C(=O)N[C@H](C(=O)N[C@@H](CCCNC(=N)N)C(=O)N[C@@H](CCC(N)=O)C(=O)N[C@@H](CCCNC(=N)N)C(=O)N(C)[C@@H](Cc1ccc(O)cc1)C(N)=O)[C@@H](C)O [Compound A9] | 0.251 nM | inactive | 
2 | CC(C)C[C@H](NC(=O)[C@H](CC(=O)O)NC(=O)[C@H](C)NC(=O)[C@H](Cc1ccc(O)cc1)NC(=O)[C@H](Cc1ccc(O)cc1)NC(=O)[C@H](CCCNC(=N)N)NC(=O)[C@H](CC(N)=O)NC(=O)[C@H](Cc1c[nH]c2ccccc12)NC(=O)[C@H](CCC(=O)O)NC(=O)[C@H](CCC(=O)O)NC(=O)[C@@H]1CCCN1C(=O)[C@H](CO)NC(=O)[C@H](C)NC(=O)[C@H](CC(=O)O)NC(=O)[C@H](CCCCN)NC(=O)CNC(=O)[C@@H]1CCCN1C(=O)[C@H](C)NC(=O)[C@H](CCC(=O)O)NC(=O)[C@@H]1CCCN1C(=O)[C@H](CCCCN)NC(=O)[C@@H]1CCCN1)C(=O)N[C@@H](CCCNC(=N)N)C(=O)N[C@@H](Cc1c[nH]cn1)C(=O)N[C@@H](Cc1ccc(O)cc1)C(=O)N[C@@H](CC(C)C)C(=O)N[C@@H](CC(N)=O)C(=O)N[C@@H](Cc1c[nH]c2ccccc12)C(=O)N[C@@H](CC(C)C)C(=O)N[C@H](C(=O)N[C@@H](CCCNC(=N)N)C(=O)N[C@@H](CCCCNC(=O)CC[C@H](NC(=O)CC[C@H](NC(=O)CCCCCCCCCCCCCCCCCCC(=O)O)C(=O)O)C(=O)O)C(=O)N[C@@H](CCCNC(=N)N)C(=O)N[C@@H](Cc1ccccc1)C(N)=O)[C@@H](C)O [Compound A50] |  | inactive | 
3 | CC(C)C[C@H](NC(=O)[C@H](CC(=O)O)NC(=O)[C@H](C)NC(=O)[C@H](Cc1ccc(O)cc1)NC(=O)[C@H](Cc1ccc(O)cc1)NC(=O)[C@H](CCCNC(=N)N)NC(=O)[C@H](CC(N)=O)NC(=O)[C@H](Cc1c[nH]c2ccccc12)NC(=O)[C@H](CCC(=O)O)NC(=O)[C@H](CCC(=O)O)NC(=O)[C@@H]1CCCN1C(=O)[C@H](CO)NC(=O)[C@H](C)NC(=O)[C@H](CC(=O)O)NC(=O)[C@H](CCCCN)NC(=O)CNC(=O)[C@@H]1CCCN1C(=O)[C@H](C)NC(=O)[C@H](CCC(=O)O)NC(=O)[C@@H]1CCCN1C(=O)[C@H](CCCCN)NC(=O)[C@@H]1CCCN1)C(=O)N[C@@H](CCCNC(=N)N)C(=O)N[C@@H](Cc1c[nH]cn1)C(=O)N[C@@H](Cc1ccc(O)cc1)C(=O)N[C@@H](CC(C)C)C(=O)N[C@@H](CCCCNC(=O)CC[C@H](NC(=O)CC[C@H](NC(=O)CCCCCCCCCCCCCCCCCCC(=O)O)C(=O)O)C(=O)O)C(=O)N[C@@H](Cc1c[nH]c2ccccc12)C(=O)N[C@@H](CC(C)C)C(=O)N[C@H](C(=O)N[C@@H](CCCNC(=N)N)C(=O)N[C@@H](CCC(N)=O)C(=O)N[C@@H](CCCNC(=N)N)C(=O)N[C@@H](Cc1ccccc1)C(N)=O)[C@@H](C)O [Compound A51] |  | inactive | 
4 | CC(C)C[C@H](NC(=O)[C@H](Cc1ccc(O)cc1)NC(=O)[C@H](Cc1c[nH]cn1)NC(=O)[C@H](CCCNC(=N)N)NC(=O)[C@H](C)NC(=O)[C@H](CC(=O)O)NC(=O)[C@H](C)NC(=O)[C@H](Cc1ccc(O)cc1)NC(=O)[C@H](Cc1ccc(O)cc1)NC(=O)[C@H](CCCNC(=N)N)NC(=O)[C@H](CC(N)=O)NC(=O)[C@H](CC(C)C)NC(=O)[C@H](CCC(=O)O)NC(=O)[C@H](CCC(=O)O)NC(=O)[C@@H]1CCCN1C(=O)[C@H](CO)NC(=O)[C@H](C)NC(=O)[C@H](CC(=O)O)NC(=O)[C@H](CCCCN)NC(=O)[C@H](CCCCNC(=O)CC[C@H](NC(=O)CC[C@H](NC(=O)CCCCCCCCCCCCCCCCCCC(=O)O)C(=O)O)C(=O)O)NC(=O)[C@@H]1CCCN1C(=O)[C@H](C)NC(=O)[C@H](CCC(=O)O)NC(=O)[C@@H]1CCCN1C(=O)[C@H](CCCCN)NC(=O)[C@@H]1CCCN1)C(=O)N[C@@H](CC(N)=O)C(=O)N[C@@H](Cc1c[nH]c2ccccc12)C(=O)N[C@@H](CC(C)C)C(=O)N[C@H](C(=O)N[C@@H](CCCNC(=N)N)C(=O)N[C@@H](CCC(N)=O)C(=O)N[C@@H](CCCNC(=N)N)C(=O)N(C)[C@@H](Cc1ccc(O)cc1)C(N)=O)[C@@H](C)O [Compound A63] (H-PKPEAPK([γGlu-γGlu-C20 diacid])KDASPEELNRYYADARHYLNWLTRQR[NMeY]-NH2; N-terminus assumed) | 31.6 nM | inactive | 
5 | CC(C)C[C@H](NC(=O)[C@H](CC(=O)O)NC(=O)[C@H](CCCCN)NC(=O)[C@H](Cc1ccc(O)cc1)NC(=O)[C@H](Cc1ccc(O)cc1)NC(=O)[C@H](CCCNC(=N)N)NC(=O)[C@H](CC(=O)O)NC(=O)[C@H](Cc1c[nH]c2ccccc12)NC(=O)[C@H](CCC(=O)O)NC(=O)[C@H](CCCCN)NC(=O)[C@@H]1CCCN1C(=O)[C@H](CO)NC(=O)[C@H](C)NC(=O)[C@H](CC(=O)O)NC(=O)[C@H](CCC(=O)O)NC(=O)CNC(=O)[C@@H]1CCCN1C(=O)[C@H](CCCCNC(=O)CC[C@H](NC(=O)CC[C@H](NC(=O)CCCCCCCCCCCCCCCCCCC(=O)O)C(=O)O)C(=O)O)NC(=O)[C@H](CCC(=O)O)NC(=O)[C@@H]1CCCN1C(=O)[C@H](CCCCN)NC(=O)[C@@H]1CCCN1)C(=O)N[C@@H](CCCNC(=N)N)C(=O)N[C@@H](Cc1c[nH]cn1)C(=O)N[C@@H](Cc1ccc(O)cc1)C(=O)N[C@@H](CC(C)C)C(=O)N[C@@H](CC(N)=O)C(=O)N[C@@H](Cc1c[nH]c2ccccc12)C(=O)N[C@@H](CC(C)C)C(=O)N[C@H](C(=O)N[C@@H](CCCNC(=N)N)C(=O)N[C@@H](CCC(N)=O)C(=O)N[C@@H](CCCNC(=N)N)C(=O)N[C@@H](Cc1ccccc1)C(N)=O)[C@@H](C)O [Compound A78] | 0.0631 nM |  | 3.16 nM
